Measurements reported in paper PMC5048182, “Structure and specificity of the Type VI secretion system ClpV-TssC interaction in enteroaggregative Escherichia coli” (Scientific Reports, 2016).
“Also recorded” adds a separate entry of the source.

Tested on: ClpV1-Nt (ClpV1 N-terminal domain)
Assay: Microscale thermophoresis (MST), binding of TssC N-terminal peptides to ClpV1-Nt
Design: species or system enteroaggregative Escherichia coli
Conditions: 200 nM labeled ClpV1-Nt vs up to 500 μM peptide, 25 mM Tris-HCl pH 7.5, 200 mM NaCl, glycerol 5%, 0.05% Tween-20, triplicate
Protocol: E. coli BL21 (DE3) pLysS cells carrying the pETG20A-ClpV1-Nt plasmid were grown at 37 °C in TB medium (1.2% peptone, 2.4% yeast extract, 72 mM K2HPO4, 17 mM KH2PO4, and 0.4% glycerol). Expression of clpV1-Nt was induced at A600 = 0.6 with 0.5 mM IPTG for 18 hours at 25 °C. Cells were then resuspended in lysis buffer (50 mM Tris-HCl pH 8.0, 300 mM NaCl, 1 mM EDTA, 0.5 mg/mL lysozyme, 1mM phenylmethylsulfonyl fluoride), submitted to several freeze-thawing cycles and sonicated after the addition of 20 μg/mL DNase and 20 mM MgCl2. Pellet and soluble fraction were separated by centrifugation for 30 min at 16,000 × g. The soluble fraction containing ClpV1-Nt was loaded onto a 5-mL Ni^2+ affinity column (HisTrap™ FF) using an ÄKTA Explorer apparatus (GE healthcare) and the immobilized proteins were eluted in 50 mM Tris-HCl pH8.0, 300 mM NaCl supplemented with 250 mM imidazole. The protein solution was desalted on a HiPrep 26/10 column (Sephadex^TM G-25, Amersham Biosciences), and ClpV1-Nt was obtained by cleavage using 2 mg of TEV protease for 18 hours at 4 °C and collected in the flow-through of a 5-mL Nickel column. The protein was concentrated using the centricon technology (Millipore, 10-kDa cut-off). […]
Microscale thermophoresis experiments were performed using a Monolith NT.115 apparatus (NanoTemper). […] Each data point was measured in triplicate. […]

Question: “ATDDCLEEIINNTRA [TssC2 peptide, TssC2 (residues 15–29), […], synthesized by Genscript]” was tested. Which “binding to ClpV1-Nt (in words)” value did it give?
Answer: no binding; also recorded: no interaction
